Laboratory results from patent US20240342320A1, “POLYPEPTIDE TARGETING INTEGRIN ALPHA 6 AND USE THEREOF” (GUANGZHOU GENBIONOVA MEDICAL TECHNOLOGY CO., LTD., priority 2021, published 2024).
Like-named read-outs stand apart in the source and are kept apart here. Positions of bridges follow the written chain, without caps; N, C: chain ends. Non-standard residues stand in square brackets, D forms with d. Residues, ends and D or L forms follow the SMILES beside them. *: point of attachment. NOTA = O=C(O)CN1CCN(CC(=O)O)CCN(CC(=O)*)CC1; PEG4 = NCCOCCOCCOCCOCCC(=O)O

How the values were obtained:
integrin α6β4 [1] = target: T1, integrin α6β4 (Homo sapiens, UniProt P16144+P23229); assay: Microscale thermophoresis (MST) affinity to integrin α6β4; type: binding; details: MST
T1 sequence (P23229 24-1050 limits assumed): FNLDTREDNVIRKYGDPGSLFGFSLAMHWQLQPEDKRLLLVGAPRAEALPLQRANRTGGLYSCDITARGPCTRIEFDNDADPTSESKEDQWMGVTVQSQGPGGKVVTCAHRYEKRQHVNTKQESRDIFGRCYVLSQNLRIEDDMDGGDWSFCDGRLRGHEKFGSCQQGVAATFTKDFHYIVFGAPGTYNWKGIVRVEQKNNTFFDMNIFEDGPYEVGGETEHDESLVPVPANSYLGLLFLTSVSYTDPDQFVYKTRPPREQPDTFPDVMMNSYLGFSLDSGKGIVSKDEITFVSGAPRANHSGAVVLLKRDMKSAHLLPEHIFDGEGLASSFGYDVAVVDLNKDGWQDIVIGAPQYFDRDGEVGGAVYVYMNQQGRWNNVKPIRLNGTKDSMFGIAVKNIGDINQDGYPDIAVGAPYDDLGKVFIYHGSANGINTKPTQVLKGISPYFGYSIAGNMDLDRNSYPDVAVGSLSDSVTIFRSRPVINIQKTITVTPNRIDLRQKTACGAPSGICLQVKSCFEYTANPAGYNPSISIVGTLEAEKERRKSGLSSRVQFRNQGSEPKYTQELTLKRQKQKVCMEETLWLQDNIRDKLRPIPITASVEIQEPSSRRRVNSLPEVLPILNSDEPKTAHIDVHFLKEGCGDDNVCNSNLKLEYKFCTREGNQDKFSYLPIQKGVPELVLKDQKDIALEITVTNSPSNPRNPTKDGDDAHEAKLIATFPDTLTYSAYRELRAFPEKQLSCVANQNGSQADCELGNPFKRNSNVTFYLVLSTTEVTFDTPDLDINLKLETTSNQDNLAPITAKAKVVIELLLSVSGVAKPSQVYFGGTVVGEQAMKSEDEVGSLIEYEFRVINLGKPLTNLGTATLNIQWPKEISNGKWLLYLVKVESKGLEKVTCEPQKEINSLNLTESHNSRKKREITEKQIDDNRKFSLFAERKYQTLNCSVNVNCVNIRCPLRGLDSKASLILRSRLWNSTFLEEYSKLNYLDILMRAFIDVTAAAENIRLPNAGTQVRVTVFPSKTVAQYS
T1 sequence (P16144 28-710 partner limits assumed): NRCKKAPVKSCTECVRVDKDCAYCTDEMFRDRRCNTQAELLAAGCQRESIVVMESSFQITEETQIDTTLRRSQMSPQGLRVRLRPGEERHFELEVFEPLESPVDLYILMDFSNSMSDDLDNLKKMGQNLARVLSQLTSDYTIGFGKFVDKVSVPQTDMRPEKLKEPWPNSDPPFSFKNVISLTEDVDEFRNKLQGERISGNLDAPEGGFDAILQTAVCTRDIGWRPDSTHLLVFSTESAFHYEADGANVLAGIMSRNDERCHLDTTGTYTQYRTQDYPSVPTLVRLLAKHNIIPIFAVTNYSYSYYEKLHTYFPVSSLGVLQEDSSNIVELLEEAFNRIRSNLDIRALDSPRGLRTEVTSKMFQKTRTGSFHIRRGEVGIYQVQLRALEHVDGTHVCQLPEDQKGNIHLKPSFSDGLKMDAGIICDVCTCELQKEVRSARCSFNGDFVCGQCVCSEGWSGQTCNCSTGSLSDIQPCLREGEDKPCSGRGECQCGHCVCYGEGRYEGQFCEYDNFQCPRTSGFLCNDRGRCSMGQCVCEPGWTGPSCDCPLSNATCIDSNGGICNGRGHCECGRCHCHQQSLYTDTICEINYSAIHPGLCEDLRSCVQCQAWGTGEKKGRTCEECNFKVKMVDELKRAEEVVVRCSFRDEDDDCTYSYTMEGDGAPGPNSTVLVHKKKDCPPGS
Protocol: (§1) The affinity between these 18 polypeptides and integrin α6β4 was detected by microscale thermophoresis (MST) method as follows: • 1) Integrin α6β4 protein was dissolved to 800 nM, and polypeptide was dissolved to 100 μM. • 2) A RED-tris-NTA second-generation dye was diluted to 100 nM by using the MO series RED-tris-NTA protein labeling kit. • 3) 100 μl α6β4 protein was mixed with 50 μl dye and incubated at room temperature for 30 min, so that the α6β4 protein binds to the dye. • 4) 10 μl polypeptide was transferred into a PCR tube, and was diluted with PBST (containing 0.05% Tween 20) at a ratio of 1:1 to 16 gradients of concentrations. • 5) 3 μl protein/dye mixture was transferred into a PCR tube, 3 μl of 16 different concentrations of polypeptides was respectively added and mixed well. • 6) The mixture was absorbed by capillary and loaded on machine (instrument model Monolith NT.115) to assay, parameters were set as 80% LED/excitation power and medium MST power. • 7) MO. Affinity Analysis software was used to calculate the equilibrium dissociation constant KD between α6β4 protein and polypeptide by KD fitting mode.

integrin α6β4 [2] = target: T2, integrin α6β4 (Homo sapiens, UniProt P23229); assay: as above; type: binding; details: for Affinity relative to RWY: relative to CRWYDENAC (RWY) = 1.00
T2 sequence (P23229 24-1050 limits assumed): T1 sequence (P23229 24-1050 limits assumed)
T2 sequence (P16144 28-710 partner limits assumed): T1 sequence (P16144 28-710 partner limits assumed)
Protocol: as §1

[3] = integrin α6β4, determination 1, read-out: KD (um) 1
[4] = integrin α6β4, determination 2, read-out: KD (um) 2
[5] = integrin α6β4, determination 3, read-out: KD (um) 3
[6] = integrin α6β4, mean of 3, read-out: KD Mean value (μm)

Structure (SMILES)	Kd (integrin α6β4 [1]; [3]) [µM]	Kd (integrin α6β4 [1]; [4]) [µM]	Kd (integrin α6β4 [1]; [5]) [µM]	Kd (integrin α6β4 [1]; [6]) [µM]	Affinity relative to RWY (integrin α6β4 [2])	Kd (integrin α6β4 [1]; integrin α6β4, read-out: KD) [µM]	Kd (integrin α6β4 [2]; MST, integrin α6β4) [µM]
C[C@H](NC(=O)[C@H](CC(=O)O)NC(=O)[C@H](Cc1ccc(O)cc1)NC(=O)[C@H](Cc1c[nH]c2ccccc12)NC(=O)[C@@H](N)CCCNC(=N)N)C(=O)O [P14, RWYDA] (H-RWYDA-OH; N-terminus and C-terminus assumed)	6.28	4.69	4.22	5.06	1.38	–	–
C[C@@H]1NC(=O)[C@H](CC(N)=O)NC(=O)[C@H](CCC(=O)O)NC(=O)[C@H](CC(=O)O)NC(=O)[C@H](Cc2ccc(O)cc2)NC(=O)[C@H](Cc2c[nH]c3ccccc23)NC(=O)[C@H](CCCNC(=N)N)NC(=O)[C@@H](N)CSSC[C@@H](C(=O)O)NC1=O [P1, CRWYDENAC] (H-CRWYDENAC-OH; disulfide 1-9; N-terminus and C-terminus assumed)	8.59	6.52	5.81	–	1.00	6.97 ± 1.44	–
C[C@@H]1NC(=O)[C@H](C)NC(=O)[C@H](CCC(=O)O)NC(=O)[C@H](CC(=O)O)NC(=O)[C@H](Cc2ccc(O)cc2)NC(=O)[C@H](Cc2c[nH]c3ccccc23)NC(=O)[C@H](CCCNC(=N)N)NC(=O)[C@@H](N)CSSC[C@@H](C(=O)O)NC1=O [P7, CRWYDEAAC] (H-CRWYDEAAC-OH; disulfide 1-9; N-terminus and C-terminus assumed)	0.25	0.25	1.37	0.62	11.19	–	–
C[C@H](NC(=O)[C@H](CCC(=O)O)NC(=O)[C@H](CC(=O)O)NC(=O)[C@H](Cc1ccc(O)cc1)NC(=O)[C@H](Cc1c[nH]c2ccccc12)NC(=O)[C@@H](N)CCCNC(=N)N)C(=O)O [P12, RWYDEA] (H-RWYDEA-OH; N-terminus and C-terminus assumed)	5.26	2.49	1.74	3.16	2.20	–	–
N=C(N)NCCC[C@H](N)C(=O)N[C@@H](Cc1c[nH]c2ccccc12)C(=O)N[C@@H](Cc1ccc(O)cc1)C(=O)N[C@@H](CC(=O)O)C(=O)NCCOCCOCCOCCOCCC(=O)N[C@@H](CCCCNC(=O)CN1CCN(CC(=O)O)CCN(CC(=O)O)CC1)C(=O)O [RWYD-PEG4-K-NOTA] (H-RWYD[PEG4]K(NOTA)-OH)	–	–	–	–	–	–	0.642 ± 0.261
C[C@@H]1NC(=O)[C@H](CC(N)=O)NC(=O)[C@H](CCC(=O)O)NC(=O)[C@H](C)NC(=O)[C@H](Cc2ccc(O)cc2)NC(=O)[C@H](Cc2c[nH]c3ccccc23)NC(=O)[C@H](CCCNC(=N)N)NC(=O)[C@@H](N)CSSC[C@@H](C(=O)O)NC1=O [P5, CRWYAENAC] (H-CRWYAENAC-OH; disulfide 1-9; N-terminus and C-terminus assumed)	0.36	0.22	0.65	0.41	17.01	–	–
C[C@H](NC(=O)[C@H](CC(=O)O)NC(=O)[C@H](Cc1ccc(O)cc1)NC(=O)[C@H](Cc1c[nH]c2ccccc12)NC(=O)[C@@H](N)CCCNC(=N)N)C(=O)N[C@@H](CC(N)=O)C(=O)O [P11, RWYDAN] (H-RWYDAN-OH; N-terminus and C-terminus assumed)	34.6	23.2	35.7	31.2	0.22	–	–
C[C@H](NC(=O)[C@H](Cc1ccc(O)cc1)NC(=O)[C@H](Cc1c[nH]c2ccccc12)NC(=O)[C@@H](N)CCCNC(=N)N)C(=O)N[C@@H](CCC(=O)O)C(=O)N[C@@H](CC(N)=O)C(=O)O [P16, RWYAEN] (H-RWYAEN-OH; N-terminus and C-terminus assumed)	7.31	6.08	9.74	7.71	0.90	–	–
N=C(N)NCCC[C@H](N)C(=O)N[C@@H](Cc1c[nH]c2ccccc12)C(=O)N[C@@H](Cc1ccc(O)cc1)C(=O)N[C@@H](CC(=O)O)C(=O)N[C@@H](CCC(=O)O)C(=O)O [P13, RWYDE] (H-RWYDE-OH; N-terminus and C-terminus assumed)	14.7	78.8	99.6	64.4	0.11	–	–
